Results taken from patent US20100184680A1, “THERAPEUTIC USES OF B-TYPE NATRIURETIC PEPTIDE AND HUMAN GROWTH HORMONE 1-43” (priority 2007, published 2010).
Bridge positions count the residues as written; N and C are the ends. Ends that are not written are not given here.

Columns and labels:
[1] = system: HIV-1IIIB; test: HIV-1 antiviral assay in CEM-SS cells
[2] = system: HCMV strain AD169; test: HCMV plaque formation assay in MRC-5 cells; assay type: cell-based
[3] = system: isolated buffer-perfused and ventilated rabbit lung; test: Isolated ventilated and buffer perfused lung model
Description: The isolated buffer-perfused and ventilated rabbit lung model is established for the investigation of the lung circulation, parenchyma, bronchial system and metabolic processes. Lungs are prepared from intact animals; the lungs are artificially ventilated and blood-free perfused. This model allows the study of pathophysiologic aspects under different conditions. Isolation of the intact lung enables observation of vasoreactivity, ventilation pressures and gas exchange avoiding humoral, central or metabolic influence. Lungs were perfused with test peptide BNP using a pulsatile flow roller pump in a closed system with recirculating buffer fluid. A rabbit ventilator enables the artificial ventilation with room air/carbon dioxide-mixture (CO2). Parameters continuosly measured include lung artery and left atrial pressure and ventilation pressure. Registration of lung weight gain serves as a parameter for development of lung edema. Samples of buffer fluid can be taken through the catheters.
Rabbits (New Zealand white bastards) of either sex, weighing 2.2-2.5 kg were anesthetized, using ketamine (Ketamin Inresa®, Inresa, Freiburg, Germany) and xylazine (Rompun®, Bayer, Leverkusen, Germany). Animals were anticoagulated with heparin (1000 U/kg body weight). After tracheotomy artificial ventilation was started with room air using a Havard respirator (tidal volume 8-12 ml/kg, frequency 30 breaths/min). Midsternal thoracotomy followed in a deep analgosedation and catheters were placed into the pulmonary artery and the left atrium. Lungs were perfused with sterile Krebs-Henseleit hydroxyethylamylopectine buffer (120 mM NaCl, 4.3 mM KCl, 1.1 mM KH2PO4, 25 mM NaHCO3, 2.4 mM CaCl2, 1.3 mM […], 2.4 g/L glucose) and 2.5% hydroxyethylamylopectine (mol weight 200,000) as an oncotic agent (Serag Wiesner, Naila, Germany). All concentrations are given as the final concentration in the buffer fluid.
The isolated lungs were freely suspended from an electronic force transducer (Transducer U1, Hottinger Baldwin Messtechnik, Darmstadt, Germany) in a humidified and tempered glas thorax. Perfusion was performed at a constant rate of 120 mL/min in a recirculating manner (total perfusate volume 300 mL), and the whole system was heated to 38° C. Room air, supplemented with ˜4% carbon dioxide was used for artificial ventilation to reach a pH of 7.34 to 7.38 and a positive end exspiratory pressure (PEEP) was set at 1-1.3 mmHg. Pressure in left atrium was set at 1.2 mmHg (reference point hilum). Pulmonary artery and ventilation pressures were continuously measured and are shown as mean values.
Independent variables in all experiments were: constant perfusion flow rate of 120 ml/min and a ventilator setting (tidal volume 8-12 ml/kg; frequency 30 breaths/min). The main dependent variables included: pressures in trachea and artery which were continuously measured. Lung weight gain as a parameter of lung edema formation was also continuously registered. Under constant flow condition, elevation of the artery pressure directly reflected an increase in vascular resistance.
Thromboxan A2 mimetic U46619 induces vasoconstriction: Lung artery pressure under resting conditions is about 8 mmHg. Slow titration, followed by continuous infusion of the thromboxan A2 mimetic U46619 causes precapillary vasoconstriction of about 25 mmHg. An observation period of up to 3 hours is accessible for further intervention.
Endothelin 1 (ET1) vasoconstricts the lung vasculature and leads to increased pressure in the isolated rabbit lung in a biphasic matter that is dose dependent. Infusion or inhalation of the test peptide of the invention is tested for therapeutic effect of lowering the vasoconstriction.
All data are shown as mean and standard error of mean (SEM). For primary data analysis, comparison was performed between the U46619 group and intravascular administered peptide. […]

[4] = system: Human A549 cells; test: Apoptosis prevention assay (C2 ceramide, Annexin-5); assay type: cell-based; details: 10 micrograms per ml, 30 min pretreatment
Description: Human A549 cells (carcinomic human alveolar basal epithelial cells) were utilized in the experiments employing the Annexin-5 apoptosis assay. […] A549 cells were pretreated for 30 min with test peptides—10 micrograms per ml—followed by the exposure to C2 ceramide.

[5] = system: Tumor Necrosis Factor-α (TNF-α); test: Th1/Th2 cytokine profiling assay: TNF-α; assay type: cell-based, Balb/c mice; details: 10 micrograms per ml; Ovalbumin restimulation; 72 hours
Source text: (§1) The Balb/c mice (originated in 1923, it is a popular strain and is used in many different research disciplines. Also classified as an inbred from the production of 20 or more successive brother-sister matings, the Balb/c mouse is albino and small in size) were immunized on Days 1, 15, and 29 with Ovalbumin (Ovalbumin is the main protein found in egg white, commonly used to stimulate an immunological reaction in test animals) in PBS (5 micrograms/injection). On day 50, spleens of the mice were harvested (3 weeks after last boost with Ovalbumin). Cells were cultured (2×10^5/well in triplicate) and incubated with culture medium or test peptides—10 micrograms per ml—for 30 min. Thereafter, additional Ovalbumin was added to the cells at 10 micrograms/ml for in vitro restimulation of the cells. 72 hours later, cell supernatants were harvested and assayed using the Becton Dickinson Mouse Th1/Th2 Cytokine CBA Kit. This kit can be used to measure Interleukin-2 (IL-2), Interleukin-4 (IL-4), Interleukin-5 (IL-5), Interferon-γ (IFN-γ), and Tumor Necrosis Factor-α (TNF-α) protein levels in a single sample. The kit performance has been optimized for analysis of physiologically relevant concentrations (pg/ml levels) of specific cytokine proteins in tissue culture supernatants and serum samples.

[6] = system: Interferon-γ (IFN-γ); test: Th1/Th2 cytokine profiling assay: IFN-γ; assay type: cell-based, Balb/c mice; details: 10 micrograms per ml; Ovalbumin restimulation; 72 hours
Source text: as §1

[7] = system: Interleukin-2 (IL-2); test: Th1/Th2 cytokine profiling assay: IL-2; assay type: cell-based, Balb/c mice; details: 10 micrograms per ml; Ovalbumin restimulation; 72 hours
Source text: as §1

[8] = system: Interleukin-4 (IL-4); test: Th1/Th2 cytokine profiling assay: IL-4; assay type: cell-based, Balb/c mice; details: 10 micrograms per ml; Ovalbumin restimulation; 72 hours
Source text: (§2) The Balb/c mice (originated in 1923, it is a popular strain and is used in many different research disciplines. Also classified as an inbred from the production of 20 or more successive brother-sister matings, the Balb/c mouse is albino and small in size) were immunized on Days 1, 15, and 29 with Ovalbumin (Ovalbumin is the main protein found in egg white, commonly used to stimulate an immunological reaction in test animals) in PBS (5 micrograms/injection). On day 50, spleens of the mice were harvested (3 weeks after last boost with Ovalbumin). Cells were cultured (2×10^5/well in triplicate) and incubated with culture medium or test peptides—10 micrograms per ml—for 30 min. Thereafter, additional Ovalbumin was added to the cells at 10 micrograms/ml for in vitro restimulation of the cells. 72 hours later, cell supernatants were harvested and assayed using the Becton Dickinson Mouse Th1/Th2 Cytokine CBA Kit.

[9] = system: Interleukin-5 (IL-5); test: Th1/Th2 cytokine profiling assay: IL-5; assay type: cell-based, Balb/c mice; details: 10 micrograms per ml; Ovalbumin restimulation; 72 hours
Source text: as §2

[10] = system: Primary Human endothelial cells (HUVEC); test: Endothelial cell migration assay; assay type: cell-based; details: 10 micrograms per ml, 22 hours
[11] = system: HUVEC; test: Endothelial tube formation assay; assay type: cell-based, human; details: 10 micrograms per ml, 20 hours
Source text: Positive control was vehicle only.

[12] = system: cGMP; test: Cyclic GMP measurement in the rabbit lung model; details: buffer samples from left atrial catheter; RIA; administration dependent
Description: Buffer samples were drawn from the left atrial catheter in the isolated buffer-perfused and ventilated rabbit lung model at predefined time points, every 30 minutes in the control group and every 15 minutes in the intervention groups. Samples were immediately frozen and stored at −80° Celsius. Analysis of cGMP was performed using a commercially available radio immuno (RIA) assay kit.

[13] = increasing doses of 5, 10 and 100 nM, isolated rabbit lung

Cc1cn([C@H]2C[C@H](N=[N+]=[N-])[C@@H](CO)O2)c(=O)[nH]c1=O [AZT]
antiviral activity of positive control compounds (HIV-1) [1]: expected levels of antiviral activity

Nc1nc(O)c2ncn(COC(CO)CO)c2n1 [Ganciclovir]
antiviral activity of positive control compound (HCMV) [2]: expected levels of antiviral activity

CCCCC[C@H](O)/C=C/[C@@H]1[C@@H](C/C=C\CCCC(=O)O)[C@H]2CO[C@@H]1C2 [U46619, reference compound]
vasoconstriction (lung artery pressure), plateau at the end of the experiment ([3]; continuous infusion, after another 135 minutes): 25.53±0.9 mmHg
vasoconstriction (lung artery pressure) provoked by continuous infusion ([3]; within 15 minutes, isolated rabbit lung): 25.5±0.26 mmHg

CC(C)(C)NC(=O)[C@@H]1CN(Cc2cccnc2)CCN1C[C@@H](O)C[C@@H](Cc1ccccc1)C(=O)N[C@H]1c2ccccc2C[C@H]1O [indinavir]
antiviral activity of positive control compounds (HIV-1) [1]: expected levels of antiviral activity

Endothelin 1 (CSCSSLMDKECVYFCHLDIIW; disulfide 1-15, 3-11; ends not checked; UniProt P05305 53-73, looked up) [ET1, Endothelin 1 (ET1) vasoconstricts the lung vasculature, reference compound]
vasoconstriction (lung artery pressure), stable plateau phase ([3]; administration into the buffer fluid, rise over 60 minutes): 27±2.16 mmHg

Phe-Pro-Thr-Ile-Pro-Leu-Ser-Arg-Leu-Phe-Asp-Asn-Ala-Met-Leu-Arg-Ala-His-Arg-Leu-His-Gln-Leu-Ala-Phe-Asp-Thr-Tyr-Gln-Glu-Phe-Glu-Glu-Ala-Tyr-Ile-Pro-Lys-Glu-Gln-Lys-Tyr-Ser-OH (FPTIPLSRLFDNAMLRAHRLHQLAFDTYQEFEEAYIPKEQKYS-OH) [Peptide 2, Human growth Hormone (1-43); HGH]
prevented (reduced) ceramide-induced apoptosis on human lung cells [4]: 18.4%
TNF-a spleen cells; TH1 response (% of control) [5]: 94.0 % of control
IFNγ spleen cells; TH1 response (% of control) [6]: 60.3 % of control
IL-2 spleen cells (% of control) [7]: 132.2 % of control
IL-4 spleen cells; TH2 response (% of control) [8]: 184.6 % of control
IL-5 spleen cells; TH2 response (% of control) [9]: 78.2 % of control
induced the migration of human endothelial cells [10]: 14%
inhibited the tube formation of endothelial cells [11]: 19%

Ser-Pro-Lys-Met-Val-Gln-Gly-Ser-Gly-Cys-Phe-Gly-Arg-Lys-Met-Asp-Arg-Ile-Ser-Ser-Ser-Ser-Gly-Leu-Gly-Cys-Lys-Val-Leu-Arg-Arg-His [Peptide 1]
prevented (reduced) ceramide-induced apoptosis on human lung cells [4]: 14.4%
TNF-a spleen cells; TH1 response (% of control) [5]: 93.1 % of control
IFNγ spleen cells; TH1 response (% of control) [6]: 66.1 % of control
IL-2 spleen cells (% of control) [7]: 0.0 % of control
IL-4 spleen cells; TH2 response (% of control) [8]: 0.0 % of control
IL-5 spleen cells; TH2 response (% of control) [9]: 92.7 % of control
inhibited the migration of human endothelial cells [10]: 21%
inhibited the tube formation of endothelial cells [11]: 3%
arterial pressure under stable high vasoconstriction [3, 13]: rapid and dose dependent decline
lung weight [3, 13]: without affecting
ventilation pressure [3, 13]: without affecting
cGMP levels [12]: significantly increased
